The test system of assay [1] is Rattus norvegicus. The experiment in a line: Hypotensive effect in rat at 100 nmol/kg,po. Format: functional.
Assay [2] is filed under the species Oryctolagus cuniculus. The assay is described as follows: Cardioprotective activity in rabbit model assessed as resistance relaxation at 5.6 uM. Format: functional. The arrangement: scale not given: the % may be the effect or the level left.
The species named for assay [3] is Mus musculus. The assay is described as follows: Antiatherosclerotic activity in Apoe-/- mouse assessed as attenuation of coronary artery illness relative to control. Format: functional.
For assay [4], the species on record is Rattus norvegicus. The assay is described as follows: Activation of rat Na(+)/K(+) ATPase assessed as increase in maximum velocity relative to control.
The species named for assay [5] is Oryctolagus cuniculus. The assay is described as follows: Cardioprotective activity in rabbit model assessed as conductivity relaxation at 5.6 uM. Format: functional. The arrangement: scale not given: the % may be the effect or the level left.
The species named for assay [6] is Oryctolagus cuniculus. The experiment in a line: Cardioprotective activity in rabbit model assessed as conductivity relaxation at 30 uM. The assay is classed as functional. The arrangement: scale not given: the % may be the effect or the level left.
For assay [7], the species on record is Mus musculus. The assay is described as follows: Effect on linoleic level in serum of high fat diet induced mouse model assessed as reduction in linoleic level relative to control. The assay is classed as functional. The arrangement: scale not given: the % may be the effect or the level left.
The species named for assay [8] is Mus musculus. The assay is described as follows: Effect on triglyceride level in serum of high fat diet induced mouse model assessed as reduction in triglycerides level relative to control. The assay is classed as functional. Details: scale not given: the % may be the effect or the level left.
Assay [9] relates to Mus musculus. The experiment in a line: Cardioprotection in […] assessed as decrease in mean arterial pressure at 5 to 10 mg/kg, po measured after 13 weeks relative control. The assay is classed as functional. The arrangement: scale not given: the % may be the effect or the level left. The settings on record: dose 5-10 mg/kg.
Assay [10] is filed under the species Mus musculus. The experiment in a line: Effect on palmitic level in serum of high fat diet induced mouse model assessed as reduction in palmitic level relative to control. Details: scale not given: the % may be the effect or the level left. The assay is classed as functional.
The species named for assay [11] is Mus musculus. The assay is described as follows: Effect on oleic level in serum of high fat diet induced mouse model assessed as reduction in oleic level relative to control. Format: functional. Details: scale not given: the % may be the effect or the level left.
The species entered for assay [12] is Oryctolagus cuniculus. The assay is described as follows: Cardioprotective activity in rabbit model assessed as resistance relaxation at 30 uM. The assay is classed as functional. Details: scale not given: the % may be the effect or the level left.
The species entered for assay [13] is Oryctolagus cuniculus. The experiment in a line: Cardioprotective activity in rabbit model assessed as resistance relaxation at 8 uM. The arrangement: scale not given: the % may be the effect or the level left. The assay is classed as functional.
For assay [14], the species on record is Oryctolagus cuniculus. The assay is described as follows: Cardioprotective activity in rabbit model assessed as conductivity relaxation at 8 uM. The assay is classed as functional. Details: scale not given: the % may be the effect or the level left.

This note sets out measurements from ChEMBL document CHEMBL5260835, “Therapeutic potential of quercetin as a cardiovascular agent” (2018).

Take `C[C@H](CS)C(=O)N1CCC[C@H]1C(=O)O` [CAPTOPRIL]: the Activity in assay [1] is reported as 29.7 mmHg.

As to `O=c1c(O)c(-c2ccc(O)c(O)c2)oc2cc(O)cc(O)c12` [QUERCETIN], the Activity in [2] is -3.2%; in [3] it was 86%; in assay [4] it was 15%; in assay [5], -20%; in assay [6], -72%; in assay [7] it was 9%. In addition, the Activity was 14% in assay [8]; -12% in assay [9]; 9% in assay [10]; 9% in assay [11]; -82% in assay [12]; -47% in [13]. The Activity in [14] is -3.2%.
